Laboratory results as given in the supplement of paper PMC13380429.

Columns and labels:
[1] = system: A549-ACE2 infected with SARS-CoV-2; assay: morphology score (similarity to uninfected cells); higher = more like uninfected cells; settings: 24 h
Vero E6 [2] = assay: cell viability relative to DMSO; higher = less toxic; settings: 72 h
HepG2 [3] = assay: as above; settings: 72 h
U2OS [4] = assay: as above; settings: 72 h
Caco-2 [5] = assay: as above; settings: 72 h
Calu-3 [6] = assay: as above; settings: 72 h
A549-ACE2 [7] = assay: drug-induced phospholipidosis relative to tamoxifen; higher = more phospholipidosis
[8] = system: A549-ACE2 infected with SARS-CoV-2; assay: SARS-CoV-2 infection rate relative to DMSO; higher = more infection; settings: 24 h
Caco-2 [9] = assay: relative viability EC50 (midpoint between 100% and the lowest measured viability); higher = less toxic; settings: 72 h
Calu-3 [10] = assay: as above; settings: 72 h
Vero E6 [11] = assay: drug sensitivity score (DSS) for viability; higher = more toxic; extreme values may be limits of the assay; settings: 72 h
HepG2 [12] = assay: as above; settings: 72 h
U2OS [13] = assay: as above; settings: 72 h
Caco-2 [14] = assay: as above; settings: 72 h
Calu-3 [15] = assay: as above; settings: 72 h
[16] = system: A549-ACE2 infected with SARS-CoV-2; assay: cell count relative to DMSO; higher = less toxic; settings: 24 h
Vero E6 [17] = assay: relative viability EC50 (midpoint between 100% and the lowest measured viability); higher = less toxic; settings: 72 h
HepG2 [18] = assay: as above; settings: 72 h
A549-ACE2 [19] = assay: phospholipidosis EC50; higher = less potent phospholipidosis inducer

Q: How did the morphology score ([1]; 0.1 µM) turn out when `COc1c(OCCCN2CCOCC2)ccc2c1N=C(NC(=O)c1cnc(N)nc1)N1CCN=C21` [copanlisib] was run?
A: Its morphology score is 0.23.

Q: What about the morphology score ([1]; 0.3 µM) of the same compound?
A: The morphology score was 0.09.

Q: And the morphology score ([1]; 1 µM)?
A: The morphology score was 0.35.

Q: And the morphology score ([1]; 3 µM)?
A: Its morphology score is 0.32.

Q: And the cell viability (Vero E6 [2]; 1 nM)?
A: Its cell viability is 98.8%.

Q: And the cell viability (Vero E6 [2]; 10 nM)?
A: The cell viability was 105%.

Q: And the cell viability (Vero E6 [2]; 100 nM)?
A: Its cell viability is 96%.

Q: And the cell viability (Vero E6 [2]; 1000 nM)?
A: The cell viability was 89.8%.

Q: And the cell viability (Vero E6 [2]; 10000 nM)?
A: Its cell viability is 65.1%.

Q: And the cell viability (HepG2 [3]; 1 nM)?
A: Its cell viability is 98.5%.

Q: And the cell viability (HepG2 [3]; 10 nM)?
A: Its cell viability is 109%.

Q: And the cell viability (HepG2 [3]; 100 nM)?
A: Its cell viability is 101%.

Q: What about the cell viability (HepG2 [3]; 1000 nM) of the same compound?
A: The cell viability was 71%.

Q: What about the cell viability (HepG2 [3]; 10000 nM) of the same compound?
A: The cell viability was 51.9%.

Q: What about the cell viability (U2OS [4]; 1 nM) of the same compound?
A: Its cell viability is 101%.

Q: What about the cell viability (U2OS [4]; 10 nM) of the same compound?
A: Its cell viability is 96.2%.

Q: What about the cell viability (U2OS [4]; 100 nM) of the same compound?
A: The cell viability was 98.2%.

Q: And the cell viability (U2OS [4]; 1000 nM)?
A: Its cell viability is 96.9%.

Q: What about the cell viability (U2OS [4]; 10000 nM) of the same compound?
A: The cell viability was 67.5%.

Q: And the cell viability (Caco-2 [5]; 1 nM)?
A: The cell viability was 99.2%.

Q: What about the cell viability (Caco-2 [5]; 10 nM) of the same compound?
A: Its cell viability is 98.7%.

Q: What about the cell viability (Caco-2 [5]; 100 nM) of the same compound?
A: The cell viability was 94.6%.

Q: And the cell viability (Caco-2 [5]; 1000 nM)?
A: The cell viability was 86.9%.

Q: And the cell viability (Caco-2 [5]; 10000 nM)?
A: The cell viability was 34.9%.

Q: What about the cell viability (Calu-3 [6]; 1 nM) of the same compound?
A: The cell viability was 102%.

Q: And the cell viability (Calu-3 [6]; 10 nM)?
A: Its cell viability is 93.1%.

Q: And the cell viability (Calu-3 [6]; 100 nM)?
A: Its cell viability is 95.4%.

Q: And the cell viability (Calu-3 [6]; 1000 nM)?
A: The cell viability was 73.4%.

Q: And the cell viability (Calu-3 [6]; 10000 nM)?
A: Its cell viability is 32.9%.

Q: What about the drug-induced phospholipidosis (A549-ACE2 [7]; 0.3 µM, 24 h) of the same compound?
A: Its drug-induced phospholipidosis is -3.17%.

Q: What about the drug-induced phospholipidosis (A549-ACE2 [7]; 0.3 µM, 48 h) of the same compound?
A: The drug-induced phospholipidosis was -1.4%.

Q: And the drug-induced phospholipidosis (A549-ACE2 [7]; 0.3 µM, 72 h)?
A: The drug-induced phospholipidosis was -0.924%.

Q: And the drug-induced phospholipidosis (A549-ACE2 [7]; 0.833333 µM, 24 h)?
A: The drug-induced phospholipidosis was -4.37%.

Q: What about the drug-induced phospholipidosis (A549-ACE2 [7]; 0.833333 µM, 48 h) of the same compound?
A: Its drug-induced phospholipidosis is -3.62%.

Q: What about the drug-induced phospholipidosis (A549-ACE2 [7]; 0.833333 µM, 72 h) of the same compound?
A: Its drug-induced phospholipidosis is -3.86%.

Q: And the drug-induced phospholipidosis (A549-ACE2 [7]; 3.33333 µM, 24 h)?
A: The drug-induced phospholipidosis was 0.15%.

Q: And the drug-induced phospholipidosis (A549-ACE2 [7]; 3.33333 µM, 48 h)?
A: The drug-induced phospholipidosis was 0.68%.

Q: And the drug-induced phospholipidosis (A549-ACE2 [7]; 3.33333 µM, 72 h)?
A: The drug-induced phospholipidosis was 0.214%.

Q: And the drug-induced phospholipidosis (A549-ACE2 [7]; 6.66667 µM, 24 h)?
A: Its drug-induced phospholipidosis is 5.67%.

Q: What about the drug-induced phospholipidosis (A549-ACE2 [7]; 6.66667 µM, 48 h) of the same compound?
A: Its drug-induced phospholipidosis is 3.97%.

Q: What about the drug-induced phospholipidosis (A549-ACE2 [7]; 6.66667 µM, 72 h) of the same compound?
A: Its drug-induced phospholipidosis is 2.05%.

Q: What about the drug-induced phospholipidosis (A549-ACE2 [7]; 10 µM, 24 h) of the same compound?
A: The drug-induced phospholipidosis was 10.8%.

Q: And the drug-induced phospholipidosis (A549-ACE2 [7]; 10 µM, 48 h)?
A: The drug-induced phospholipidosis was 5.69%.

Q: What about the drug-induced phospholipidosis (A549-ACE2 [7]; 30 µM, 24 h) of the same compound?
A: Its drug-induced phospholipidosis is 56.5%.

Q: What about the SARS-CoV-2 infection rate ([8]; 0.1 µM) of the same compound?
A: The SARS-CoV-2 infection rate was 101%.

Q: What about the SARS-CoV-2 infection rate ([8]; 0.3 µM) of the same compound?
A: Its SARS-CoV-2 infection rate is 97%.

Q: And the SARS-CoV-2 infection rate ([8]; 1 µM)?
A: The SARS-CoV-2 infection rate was 90%.

Q: What about the SARS-CoV-2 infection rate ([8]; 3 µM) of the same compound?
A: Its SARS-CoV-2 infection rate is 92%.

Q: What about the “relative viability EC50” value (Caco-2 [9]) of the same compound?
A: Its value is 1.73 µM.

Q: What about the “relative viability EC50” value (Calu-3 [10]) of the same compound?
A: Its value is 1.26 µM.

Q: And the drug sensitivity score (Vero E6 [11])?
A: Its drug sensitivity score is 2.9.

Q: And the drug sensitivity score (HepG2 [12])?
A: Its drug sensitivity score is 6.

Q: What about the drug sensitivity score (U2OS [13]) of the same compound?
A: The drug sensitivity score was 2.

Q: What about the drug sensitivity score (Caco-2 [14]) of the same compound?
A: Its drug sensitivity score is 5.7.

Q: And the drug sensitivity score (Calu-3 [15])?
A: Its drug sensitivity score is 6.8.

Q: What about the cell count ([16]; 0.1 µM) of the same compound?
A: The cell count was 101%.

Q: What about the cell count ([16]; 0.3 µM) of the same compound?
A: Its cell count is 100%.

Q: What about the cell count ([16]; 1 µM) of the same compound?
A: The cell count was 98%.

Q: And the cell count ([16]; 3 µM)?
A: Its cell count is 83%.

Q: Which results are given for `CCN1CCC(n2cc(CNc3cc(Cl)c4ncc(C#N)c(Nc5ccc(F)c(Cl)c5)c4c3)nn2)CC1` [cot-inhibitor-2]?
A: morphology score ([1]; 0.3 µM): 0.17; morphology score ([1]; 3 µM): 0.77; morphology score ([1]; 10 µM): 0.43; cell viability (Vero E6 [2]; 1 nM): 95.7%; cell viability (Vero E6 [2]; 10 nM): 101%; cell viability (Vero E6 [2]; 100 nM): 101%; cell viability (Vero E6 [2]; 1000 nM): 99.8%; cell viability (Vero E6 [2]; 10000 nM): 81.6%; cell viability (HepG2 [3]; 1 nM): 102%; cell viability (HepG2 [3]; 10 nM): 109%; cell viability (HepG2 [3]; 100 nM): 91.3%; cell viability (HepG2 [3]; 1000 nM): 100%; cell viability (HepG2 [3]; 10000 nM): 43.9%; cell viability (U2OS [4]; 1 nM): 102%; cell viability (U2OS [4]; 10 nM): 96.4%; cell viability (U2OS [4]; 100 nM): 97.4%; cell viability (U2OS [4]; 1000 nM): 93.2%; cell viability (U2OS [4]; 10000 nM): 66%; cell viability (Caco-2 [5]; 1 nM): 105%; cell viability (Caco-2 [5]; 10 nM): 99.9%; cell viability (Caco-2 [5]; 100 nM): 93.3%; cell viability (Caco-2 [5]; 1000 nM): 94.6%; cell viability (Caco-2 [5]; 10000 nM): 47.4%; cell viability (Calu-3 [6]; 1 nM): 110%; cell viability (Calu-3 [6]; 10 nM): 92%; cell viability (Calu-3 [6]; 100 nM): 111%; cell viability (Calu-3 [6]; 1000 nM): 96.6%; cell viability (Calu-3 [6]; 10000 nM): 87%; drug-induced phospholipidosis (A549-ACE2 [7]; 0.3 µM, 24 h): -0.44%; drug-induced phospholipidosis (A549-ACE2 [7]; 0.3 µM, 48 h): -2.64%; drug-induced phospholipidosis (A549-ACE2 [7]; 0.3 µM, 72 h): 1.59%; drug-induced phospholipidosis (A549-ACE2 [7]; 0.833333 µM, 24 h): -4.12%; drug-induced phospholipidosis (A549-ACE2 [7]; 0.833333 µM, 48 h): -3.78%; drug-induced phospholipidosis (A549-ACE2 [7]; 0.833333 µM, 72 h): -0.868%; drug-induced phospholipidosis (A549-ACE2 [7]; 3.33333 µM, 24 h): -0.13%; drug-induced phospholipidosis (A549-ACE2 [7]; 3.33333 µM, 48 h): 2.2%; drug-induced phospholipidosis (A549-ACE2 [7]; 3.33333 µM, 72 h): 0.286%; drug-induced phospholipidosis (A549-ACE2 [7]; 6.66667 µM, 24 h): 29.3%; SARS-CoV-2 infection rate ([8]; 0.3 µM): 93%; SARS-CoV-2 infection rate ([8]; 3 µM): 47%; SARS-CoV-2 infection rate ([8]; 10 µM): 26%; relative viability EC50 (Vero E6 [17]): > 10 µM; relative viability EC50 (HepG2 [18]): 3.19 µM; relative viability EC50 (Caco-2 [9]): 2.31 µM; relative viability EC50 (Calu-3 [10]): > 10 µM; drug sensitivity score (Vero E6 [11]): 0.5; drug sensitivity score (HepG2 [12]): 3; drug sensitivity score (U2OS [13]): 2.7; drug sensitivity score (Caco-2 [14]): 3.7; drug sensitivity score (Calu-3 [15]): 0.3; cell count ([16]; 0.3 µM): 102%; cell count ([16]; 3 µM): 112%; cell count ([16]; 10 µM): 66%

Q: Which morphology score ([1]; 0.1 µM) does the source give for `CCN(CC)CCCC(C)Nc1c2ccc(Cl)cc2nc2ccc(OC)cc12` (stereo not drawn) [mepacrine] here?
A: The morphology score was 0.52.

Q: And the morphology score ([1]; 0.3 µM)?
A: The morphology score was 0.52.

Q: And the morphology score ([1]; 1 µM)?
A: Its morphology score is 0.63.

Q: What about the morphology score ([1]; 3 µM) of the same compound?
A: Its morphology score is 0.79.

Q: What about the “phospholipidosis EC50” value (A549-ACE2 [19]; 24 h) of the same compound?
A: The value was 15.8 µM.

Q: And the “phospholipidosis EC50” value (A549-ACE2 [19]; 48 h)?
A: Its value is 5.62 µM.

Q: What about the “phospholipidosis EC50” value (A549-ACE2 [19]; 72 h) of the same compound?
A: Its value is 3 µM.

Q: What about the drug sensitivity score (Vero E6 [11]) of the same compound?
A: Its drug sensitivity score is 7.2.

Q: What about the drug sensitivity score (HepG2 [12]) of the same compound?
A: Its drug sensitivity score is 8.9.

Q: And the drug sensitivity score (U2OS [13])?
A: The drug sensitivity score was 4.

Q: What about the drug sensitivity score (Calu-3 [15]) of the same compound?
A: Its drug sensitivity score is 5.7.
